“And” between values parts separate entries of the source, which are not always exact repeats. Equal values may be shown once. Toxic doses and inconclusive results are not listed.
Tested on: L1210 leukemia ip in BDF1 mice, survival T/C
Experiment: NCI In Vivo Anticancer Drug Screen. Data for tumor model L1210 Leukemia (intraperitoneal) in B6D2F1 (BDF1) mice
Conditions: endpoint: mean survival time, higher = longer survival
Procedure, shortened: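 Transplanted-tumor mice were given test agent; controls received vehicle only. Survival readings from the two groups were divided (treated over control).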

[1] = dose: 100.0 mg/kg/injection, schedule: Q01DX001 (ip), vehicle: carboxymethylcellulose (CMC)
[2] = dose: 200.0 mg/kg/injection, schedule: Q01DX001 (ip), vehicle: carboxymethylcellulose (CMC)
[3] = dose: 400.0 mg/kg/injection, schedule: Q01DX001 (ip), vehicle: carboxymethylcellulose (CMC)
[4] = dose: 100.0 mg/kg/injection, schedule: Q04DX003 (ip), vehicle: Klucel (hydroxypropylcellulose) (HPC)
[5] = dose: 200.0 mg/kg/injection, schedule: Q04DX003 (ip), vehicle: Klucel (hydroxypropylcellulose) (HPC)
[6] = dose: 400.0 mg/kg/injection, schedule: Q04DX003 (ip), vehicle: Klucel (hydroxypropylcellulose) (HPC)
[7] = dose: 100.0 mg/kg/injection, schedule: Q04DX003 (ip), vehicle: saline with Tween-80
[8] = dose: 400.0 mg/kg/injection, schedule: Q04DX003 (ip), vehicle: saline with Tween-80
[9] = dose: 100.0 mg/kg/injection, schedule: Q01DX009 (ip), vehicle: Klucel (hydroxypropylcellulose) (HPC)
[10] = dose: 200.0 mg/kg/injection, schedule: Q01DX009 (ip), vehicle: Klucel (hydroxypropylcellulose) (HPC)
[11] = dose: 400.0 mg/kg/injection, schedule: Q01DX009 (ip), vehicle: Klucel (hydroxypropylcellulose) (HPC)
[12] = dose: 100.0 mg/kg/injection, schedule: Q04DX002 (ip), vehicle: Klucel (hydroxypropylcellulose) (HPC)
[13] = dose: 200.0 mg/kg/injection, schedule: Q04DX002 (ip), vehicle: Klucel (hydroxypropylcellulose) (HPC)
[14] = dose: 400.0 mg/kg/injection, schedule: Q04DX002 (ip), vehicle: Klucel (hydroxypropylcellulose) (HPC)
[15] = dose: 100.0 mg/kg/injection, schedule: Q01DX001 (ip), vehicle: saline
[16] = dose: 200.0 mg/kg/injection, schedule: Q01DX001 (ip), vehicle: saline
[17] = dose: 400.0 mg/kg/injection, schedule: Q01DX001 (ip), vehicle: saline
[18] = dose: 100.0 mg/kg/injection, schedule: Q01DX009 (ip), vehicle: saline with Tween-80
[19] = dose: 200.0 mg/kg/injection, schedule: Q01DX009 (ip), vehicle: saline with Tween-80
[20] = dose: 400.0 mg/kg/injection, schedule: Q01DX009 (ip), vehicle: saline with Tween-80

For O=c1nc(NO)ccn1C1CCCCO1 (stereo not given), the T/C [1] was 95 % of control, the T/C [2] was 95 % of control and the T/C [3] was 95 % of control.

For NC(N)=NC(N)=Nc1ccc(Cl)cc1, the T/C [4] was 103 % of control.

With CCN=C(N)Nc1ccc(NC(=O)c2ccc(C(=O)Nc3ccc(NC(N)=NCC)cc3)cc2)cc1 the T/C (dose: 0.12 mg/kg/injection, schedule: Q01DX Z (ip), vehicle: carboxymethylcellulose (CMC)) was 101 % of control, the T/C (dose: 0.25 mg/kg/injection, schedule: Q01DX Z (ip), vehicle: carboxymethylcellulose (CMC)) was 105 % of control and the T/C (dose: 1.0 mg/kg/injection, schedule: Q01DX Z (ip), vehicle: carboxymethylcellulose (CMC)) was 154 % of control. For the same molecule, the T/C (dose: 2.0 mg/kg/injection, schedule: Q01DX Z (ip), vehicle: carboxymethylcellulose (CMC)) was 227 % of control, the T/C (dose: 3.0 mg/kg/injection, schedule: Q01DX Z (ip), vehicle: carboxymethylcellulose (CMC)) was 261 % of control and the T/C (dose: 4.0 mg/kg/injection, schedule: Q01DX Z (ip), vehicle: carboxymethylcellulose (CMC)) was 264 % of control. The T/C (dose: 6.0 mg/kg/injection, schedule: Q01DX Z (ip), vehicle: carboxymethylcellulose (CMC)) was 198 % of control, the T/C (dose: 8.0 mg/kg/injection, schedule: Q01DX Z (ip), vehicle: carboxymethylcellulose (CMC)) was 155 % of control and the T/C (dose: 11.0 mg/kg/injection, schedule: Q01DX001 (ip), vehicle: carboxymethylcellulose (CMC)) was 122 % of control. For the same molecule, the T/C (dose: 11.0 mg/kg/injection, schedule: Q01DX001 (ip), vehicle: other) was 122 % of control, the T/C (dose: 16.0 mg/kg/injection, schedule: Q01DX Z (ip), vehicle: carboxymethylcellulose (CMC)) was 121 % of control and the T/C (dose: 21.0 mg/kg/injection, schedule: Q01DX001 (ip), vehicle: carboxymethylcellulose (CMC)) was 151 % of control. The T/C (dose: 21.0 mg/kg/injection, schedule: Q01DX001 (ip), vehicle: other) was 155 % of control, the T/C (dose: 32.0 mg/kg/injection, schedule: Q01DX001 (ip), vehicle: carboxymethylcellulose (CMC)) was 163 % of control and the T/C (dose: 32.0 mg/kg/injection, schedule: Q01DX001 (ip), vehicle: other) was 164 % of control. For the same molecule, the T/C (dose: 32.0 mg/kg/injection, schedule: Q01DX Z (ip), vehicle: carboxymethylcellulose (CMC)) was 91 % of control, the T/C (dose: 48.0 mg/kg/injection, schedule: Q01DX001 (ip), vehicle: carboxymethylcellulose (CMC)) was 209 % of control and the T/C (dose: 48.0 mg/kg/injection, schedule: Q01DX001 (ip), vehicle: other) was 204 % of control. For the same molecule, the T/C (dose: 50.0 mg/kg/injection, schedule: Q01DX Z (oral), vehicle: carboxymethylcellulose (CMC)) was 118 % of control, the T/C (dose: 100.0 mg/kg/injection, schedule: Q01DX Z (oral), vehicle: carboxymethylcellulose (CMC)) was 104 % of control and the T/C (dose: 200.0 mg/kg/injection, schedule: Q01DX Z (oral), vehicle: carboxymethylcellulose (CMC)) was 96 % of control. For the same molecule, the T/C (dose: 400.0 mg/kg/injection, schedule: Q01DX Z (oral), vehicle: carboxymethylcellulose (CMC)) was 118 % of control.

In the case of CCCCCCCCCCCC(=O)NC(=S)Nc1ccc([N+](=O)[O-])cc1C, the T/C [4] is reported as 88 % of control, the T/C [5] is reported as 86 % of control and the T/C [6] is reported as 90 % of control.

With NC(=S)N/N=C/c1ccc(OC(=O)COc2ccccc2Cl)cn1 the T/C [7] was 124 % of control and the T/C [8] was 93 % of control.

For C#C/C(=N\Nc1ccc([N+](=O)[O-])cc1[N+](=O)[O-])c1ccccc1, the T/C (dose: 75.0 mg/kg/injection, schedule: Q04DX002 (ip), vehicle: saline with Tween-80) was 91 % of control, the T/C (dose: 150.0 mg/kg/injection, schedule: Q04DX002 (ip), vehicle: saline with Tween-80) was 102 % of control and the T/C (dose: 300.0 mg/kg/injection, schedule: Q04DX002 (ip), vehicle: saline with Tween-80) was 88 % of control.

For O=C(CC(C(=O)c1ccccc1)c1ccccc1)c1ccccc1 (stereo not given), the T/C [9] was 93 % of control and 89 % of control, the T/C [10] was 103 % of control and the T/C [11] was 94 % of control and 103 % of control.

CC(C)=CCNc1ncnc2c1nnn2C1OC(CO)C(O)C1O (stereo not given) was tested, and the T/C (dose: 100.0 mg/kg/injection, schedule: Q01DX001 (ip), vehicle: water) was 105 % of control, the T/C (dose: 200.0 mg/kg/injection, schedule: Q01DX001 (ip), vehicle: water) was 101 % of control and the T/C (dose: 400.0 mg/kg/injection, schedule: Q01DX001 (ip), vehicle: water) was 101 % of control.

CCCCCCCC(=O)Nc1c(C)cccc1C was tested, and the T/C [7] was 97 % of control, the T/C (dose: 200.0 mg/kg/injection, schedule: Q04DX003 (ip), vehicle: saline with Tween-80) was 93 % of control and the T/C [8] was 93 % of control.

In the case of CCCCCCCCCCCCCCCC(CCCC)c1ccccc1 (stereo not given), the T/C (dose: 100.0 mg/kg/injection, schedule: Q01DX001 (ip), vehicle: saline + alcohol) is reported as 91 % of control, the T/C (dose: 200.0 mg/kg/injection, schedule: Q01DX001 (ip), vehicle: saline + alcohol) is reported as 100 % of control and the T/C (dose: 400.0 mg/kg/injection, schedule: Q01DX001 (ip), vehicle: saline + alcohol) is reported as 96 % of control.

With O=C(Nc1cccc([N+](=O)[O-])c1)c1cccc(C(=O)Nc2cccc([N+](=O)[O-])c2)c1 the T/C [9] was 94 % of control, the T/C [10] was 89 % of control and the T/C [11] was 89 % of control.

For Cc1ccc(C)c(NC(=O)C2CCCCC2C(=O)O)c1 (stereo not given), the T/C [12] was 118 % of control, the T/C [13] was 96 % of control and the T/C [14] was 103 % of control.

With O=C(O)c1cc(Br)cc(Br)c1O the T/C [15] was 123 % of control, the T/C (dose: 100.0 mg/kg/injection, schedule: Q04DX002 (ip), vehicle: saline with Tween-80) was 91 % of control and the T/C [16] was 105 % of control. For the same molecule, the T/C (dose: 200.0 mg/kg/injection, schedule: Q04DX002 (ip), vehicle: saline with Tween-80) was 100 % of control, the T/C [17] was 109 % of control and the T/C (dose: 400.0 mg/kg/injection, schedule: Q04DX002 (ip), vehicle: saline with Tween-80) was 88 % of control.

For O=C(Oc1cc(Cl)c(S(=O)(=O)F)cc1Cl)c1ccc([N+](=O)[O-])cc1, the T/C [12] was 99 % of control, the T/C [13] was 99 % of control and the T/C [14] was 92 % of control.

COC1=C(OC)C(=O)C(SC/C=C(\C)CCCC(C)CCCC(C)CCCC(C)C)=CC1=O (stereo not given) was tested, and the T/C (dose: 6.25 mg/kg/injection, schedule: Q01DX009 (ip), vehicle: saline with Tween-80) was 103 % of control, the T/C (dose: 12.5 mg/kg/injection, schedule: Q01DX009 (ip), vehicle: saline with Tween-80) was 105 % of control and the T/C (dose: 25.0 mg/kg/injection, schedule: Q01DX009 (ip), vehicle: saline with Tween-80) was 100 % of control and 113 % of control. The T/C (dose: 50.0 mg/kg/injection, schedule: Q01DX009 (ip), vehicle: saline with Tween-80) was 104 % of control and 122 % of control, the T/C [18] was 105 % of control and 122 % of control and the T/C [19] was 115 % of control and 124 % of control. The T/C [20] was 115 % of control.

With O=C1C(=O)N2c3ccccc3CCc3cccc1c32 the T/C (dose: 100.0 mg/kg/injection, schedule: Q01DX001 (ip), vehicle: saline with Tween-80) was 103 % of control, the T/C [18] was 96 % of control and the T/C (dose: 200.0 mg/kg/injection, schedule: Q01DX001 (ip), vehicle: saline with Tween-80) was 93 % of control. For the same molecule, the T/C [19] was 100 % of control, the T/C (dose: 400.0 mg/kg/injection, schedule: Q01DX001 (ip), vehicle: saline with Tween-80) was 97 % of control and the T/C [20] was 100 % of control.

For Nc1cccc(CNC(=O)COc2cccc(Cl)c2)c1, the T/C (dose: 50.0 mg/kg/injection, schedule: Q01DX009 (ip), vehicle: Klucel (hydroxypropylcellulose) (HPC)) was 116 % of control, the T/C [9] was 109 % of control and the T/C [4] was 96 % of control. For the same molecule, the T/C [10] was 120 % of control, the T/C [5] was 96 % of control and the T/C [6] was 104 % of control.

In the case of C=CC[n+]1ccc2ccccc2c1, the T/C (dose: 25.0 mg/kg/injection, schedule: Q01DX009 (ip), vehicle: saline) is reported as 108 % of control, the T/C (dose: 50.0 mg/kg/injection, schedule: Q01DX009 (ip), vehicle: saline) is reported as 102 % of control and the T/C (dose: 100.0 mg/kg/injection, schedule: Q01DX009 (ip), vehicle: saline) is reported as 105 % of control.

O=C1C(=O)c2ccccc2C=C1C1CCCCC1 was tested, and the T/C (dose: 50.0 mg/kg/injection, schedule: Q01DX001 (ip), vehicle: carboxymethylcellulose (CMC)) was 97 % of control, the T/C [1] was 114 % of control and the T/C [2] was 97 % of control. For the same molecule, the T/C [3] was 107 % of control.

With COc1ccc(/C=C2\CSC(=O)NC2=O)cc1OC the T/C [15] was 104 % of control, the T/C [16] was 106 % of control and the T/C [17] was 106 % of control.

From PubChem BioAssay AID248 (DTP/NCI, 2004)
